In patent US7659400B2, “Radiolabelled benzamide analogues, their synthesis and use in diagnostic imaging” (Washington University, priority 2003, dated 2010):
Where “and” joins values, the source holds several entries; their conditions need not be identical. Equal entries are not always repeated. Where two headings read alike, the source gives them in different places. Blank lines part the entries; values can stand above or below the molecule they belong to.

Key:
[1] = Log D calculated using the program ACD/log D; details: spacer group four carbons (3c) versus two carbons (3a)
σ1 receptors [2] = target: T1, σ1 receptors (Cavia porcellus, UniProt Q60492)
T1 sequence (Q60492 whole entry): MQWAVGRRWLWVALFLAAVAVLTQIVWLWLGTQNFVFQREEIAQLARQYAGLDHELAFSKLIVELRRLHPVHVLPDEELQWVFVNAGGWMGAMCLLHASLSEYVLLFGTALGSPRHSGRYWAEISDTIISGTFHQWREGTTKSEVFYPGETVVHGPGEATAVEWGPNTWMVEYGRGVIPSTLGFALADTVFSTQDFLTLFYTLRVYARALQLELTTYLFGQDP
Method: (§1) In these assays, the novel sigma ligands were dissolved in N,N-dimethylformamide (DMF), DMSO or ethanol, and then diluted in 50 mM Tris-HCl buffer containing 150 mM NaCl and 100 mM EDTA at pH 7.4 prior to performing the σ1 and σ2 receptor binding assays. […] The samples were harvested and filtered rapidly through a 96-well fiber glass filter plate (millipore, Billerica, Mass.) that had been presoaked with 100 μL of 50 mM Tris-HCl buffer at pH 8.0 for 1 h.
(§2) The Ki values were determine from Scatchard plots.

σ2 receptors = target: T2, σ2 receptors (Rattus norvegicus, UniProt Q5U3Y7); assay: σ2 receptor binding assay, [^3H]DTG in the presence of (+)-pentazocine, rat liver membrane homogenates; details: for σ1:σ2 Ratio: ratio of Ki values
T2 construct: conducted using rat liver membrane homogenates; from tissue; host or cells: rat liver membrane homogenates
T2 sequence (Q5U3Y7 1-176): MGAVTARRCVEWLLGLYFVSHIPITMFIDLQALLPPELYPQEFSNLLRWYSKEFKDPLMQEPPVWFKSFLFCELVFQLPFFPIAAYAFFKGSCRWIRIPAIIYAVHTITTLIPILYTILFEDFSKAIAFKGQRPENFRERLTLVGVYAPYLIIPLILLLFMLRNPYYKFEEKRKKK
Method: The incubation time was 120 min at room temperature. […] All other procedures were identical to those described for the σ1 receptor binding assay above.

σ1 receptors [3] = target: T1, σ1 receptors; assay: σ1 receptor binding assay, [^3H](+)-pentazocine, guinea pig brain membrane homogenates; details: spacer group four carbons (3c) versus two carbons (3a)
Method: as §1, §2

EMT-6 tumors = assay: Biodistribution of 18F-labeled ligands in mice bearing EMT-6 tumors; type: in vivo, female Balb/c mice
Method: This example illustrates in vivo evaluation of compounds of the present teachings. All animal experiments were conducted in compliance with the Guidelines for the Care and Use of Research Animals established by Washington University's Animal Studies Committee. EMT-6 mouse mammary adenocarcinoma cells (5×10^5 cells in 100 uL of phosphate-buffered saline) were implanted subcutaneously in the scapular region of female Balb/c mice (˜2-month old and 17-22 g; Charles River Laboratories). […] Groups of at least 4 mice were used for each time point. […] After counting, the percentage of the injected dose per gram of tissue (%ID/g) was calculated. The tumor/organ ratios were calculated by dividing the %ID/g of the tumor by the %ID/g of each organ.

increase in the log D value relative to 3a [1]: 0.5 unit
Ki (σ1 receptors [2]): 330 ± 25 nM
σ1:σ2 Ratio (σ2 receptors): 48
increase in the affinity for σ2 receptors relative to 3a (σ2 receptors; spacer group four carbons (3c) versus two carbons (3a)): 15 fold
increase in the affinity for σ1 receptors relative to 3a (σ1 receptors [3]): 69 fold
Molecule: COc1cc2c(cc1OC)CN(CCCCNC(=O)c1cc(C)ccc1OCCF)CC2 [compound 3c, N-[6,7-dimethoxy-3,4-dihydro-1H-isoquinolin-2-yl-butyl]-2-(2-fluoro-ethoxy)-5-methyl-benzamide]

Ki (σ1 receptors [2]): 1300 nM
Molecule: COc1cc2c(cc1OC)CN(CCCCNC(=O)c1cc(I)ccc1OCCF)CC2 [compound 3e, N-[4-(6,7-dimethoxy-3,4-dihydro-1H-isoquinolin-2-yl)-butyl]-2-(2-fluoro-ethoxy)-5-iodo-benzamide]

Molecule: 5-bromo-N-[4-(6,7-dimethoxy-3,4-dihydro-1H-isoquinolin-2-yl)-butyl]-2-(2-fluoro-ethoxy)-3-methoxy-benzamide [compound 3b]
Ki (σ1 receptors [2]): 15300 nM
Ki (σ2 receptors; rat liver membranes, [^3H]DTG, mean ± SEM): 386 ± 93 nM
σ1:σ2 Ratio (σ2 receptors): 40

Ki (σ1 receptors [2]): 22800 nM
Ki (σ2 receptors): 102 ± 4 nM
σ1:σ2 Ratio (σ2 receptors): 222
Molecule: COc1cc2c(cc1OC)CN(CCNC(=O)c1cc(C)ccc1OCCF)CC2 [compound 3a, [N-(6,7-dimethoxy-3,4-dihydro-1H-isoquinolin-2-yl)-ethyl]-2-(2-fluoro-ethoxy)-5-methyl benzamide]

Biodistribution: blood (EMT-6 tumors; 5 min after i.v. injection): 4.60 ± 0.44 %ID/g
Biodistribution: bone (EMT-6 tumors; 5 min after i.v. injection): 2.59 ± 0.28 %ID/g
Biodistribution: brain (EMT-6 tumors; 5 min after i.v. injection): 0.55 ± 0.04 %ID/g
Biodistribution: fat (EMT-6 tumors; 5 min after i.v. injection): 2.32 ± 0.46 %ID/g
Biodistribution: heart (EMT-6 tumors; 5 min after i.v. injection): 3.22 ± 0.27 %ID/g
Biodistribution: kidney (EMT-6 tumors; 5 min after i.v. injection): 36.07 ± 2.28 %ID/g
Biodistribution: liver (EMT-6 tumors; 5 min after i.v. injection): 37.26 ± 4.88 %ID/g
Biodistribution: lung (EMT-6 tumors; 5 min after i.v. injection): 9.71 ± 0.83 %ID/g
Biodistribution: muscle (EMT-6 tumors; 5 min after i.v. injection): 1.52 ± 0.10 %ID/g
Biodistribution: tumor (tumor uptake) (EMT-6 tumors; 5 min after i.v. injection): 2.54 ± 0.62 %ID/g
Biodistribution: blood (EMT-6 tumors; 30 min after i.v. injection): 4.30 ± 0.59 %ID/g
Biodistribution: bone (EMT-6 tumors; 30 min after i.v. injection): 1.31 ± 0.14 %ID/g
Biodistribution: brain (EMT-6 tumors; 30 min after i.v. injection): 0.44 ± 0.04 %ID/g
Biodistribution: fat (EMT-6 tumors; 30 min after i.v. injection): 1.04 ± 0.06 %ID/g
Biodistribution: heart (EMT-6 tumors; 30 min after i.v. injection): 2.37 ± 0.29 %ID/g
Biodistribution: kidney (EMT-6 tumors; 30 min after i.v. injection): 17.43 ± 1.95 %ID/g
Biodistribution: liver (EMT-6 tumors; 30 min after i.v. injection): 17.35 ± 2.72 %ID/g
Biodistribution: lung (EMT-6 tumors; 30 min after i.v. injection): 4.07 ± 0.46 %ID/g
Biodistribution: muscle (EMT-6 tumors; 30 min after i.v. injection): 1.12 ± 0.05 %ID/g
Biodistribution: tumor (tumor uptake) (EMT-6 tumors; 30 min after i.v. injection): 2.81 ± 0.62 %ID/g
Biodistribution: tumor (tumor uptake) (EMT-6 tumors; 60 min (1 h) after i.v. injection): 2.72 ± 0.13 %ID/g
Biodistribution: blood (EMT-6 tumors; 60 min after i.v. injection): 3.39 ± 0.29 %ID/g
Biodistribution: bone (EMT-6 tumors; 60 min after i.v. injection): 0.99 ± 0.07 %ID/g
Biodistribution: brain (EMT-6 tumors; 60 min after i.v. injection): 0.36 ± 0.02 %ID/g
Biodistribution: fat (EMT-6 tumors; 60 min after i.v. injection): 0.62 ± 0.10 %ID/g
Biodistribution: heart (EMT-6 tumors; 60 min after i.v. injection): 1.61 ± 0.11 %ID/g
Biodistribution: kidney (EMT-6 tumors; 60 min after i.v. injection): 9.36 ± 0.90 %ID/g
Biodistribution: liver (EMT-6 tumors; 60 min after i.v. injection): 7.31 ± 0.98 %ID/g
Biodistribution: lung (EMT-6 tumors; 60 min after i.v. injection): 2.34 ± 0.12 %ID/g
Biodistribution: muscle (EMT-6 tumors; 60 min after i.v. injection): 0.83 ± 0.04 %ID/g
Biodistribution: tumor (tumor uptake) (EMT-6 tumors; 120 min (2 h) after i.v. injection): 1.92 %ID/g and 1.92 ± 0.10 %ID/g
Biodistribution: blood (EMT-6 tumors; 120 min after i.v. injection): 1.92 ± 0.59 %ID/g
Biodistribution: bone (EMT-6 tumors; 120 min after i.v. injection): 1.67 ± 0.27 %ID/g
Biodistribution: brain (EMT-6 tumors; 120 min after i.v. injection): 0.37 ± 0.06 %ID/g
Biodistribution: fat (EMT-6 tumors; 120 min after i.v. injection): 0.44 ± 0.08 %ID/g
Biodistribution: heart (EMT-6 tumors; 120 min after i.v. injection): 1.00 ± 0.23 %ID/g
Biodistribution: kidney (EMT-6 tumors; 120 min after i.v. injection): 3.92 ± 0.98 %ID/g
Biodistribution: liver (EMT-6 tumors; 120 min after i.v. injection): 4.25 ± 1.56 %ID/g
Biodistribution: lung (EMT-6 tumors; 120 min after i.v. injection): 1.36 ± 0.24 %ID/g
Biodistribution: muscle (EMT-6 tumors; 120 min after i.v. injection): 0.60 ± 0.11 %ID/g
Molecule: COc1cc2c(cc1OC)CN(CCCCNC(=O)c1cc(I)ccc1OCC[18F])CC2 [[^18F]3e]
clearance from the blood (in words) (EMT-6 tumors; mouse, in vivo): cleared much more slowly from the blood than [^18F]3c
